Measured values: patent US4686237A, “Erythro-(E)-7-[3'-C1-3 alkyl-1'-(3",5"-dimethylphenyl)naphth-2'-yl]-3,5-dihydroxyhept-6-enoic acids and derivatives thereof” (Sandoz Pharmaceuticals Corp., priority 1986, dated 1987)
Like-named read-outs stand apart in the source and are kept apart here.

Experiments:
HMG-CoA reductase = biological target: T1, HMG-CoA reductase (Rattus norvegicus, UniProt P51639); assay: Test A. In Vitro Microsomal Assay of HMG-CoA Reductase Inhibition; assay type: biochemical; settings: rat liver microsomal suspensions, male Sprague-Dawley rats; read-out: IC50 (concentration of the test substance calculated to produce a 50% inhibition of HMG-CoA reductase activity)
T1 construct: In the assay the microsomes are the source of the HMG-CoA reductase enzyme; from tissue; host or cells: rat liver microsomes (male Sprague-Dawley rats)
T1 sequence (P51639 1-887): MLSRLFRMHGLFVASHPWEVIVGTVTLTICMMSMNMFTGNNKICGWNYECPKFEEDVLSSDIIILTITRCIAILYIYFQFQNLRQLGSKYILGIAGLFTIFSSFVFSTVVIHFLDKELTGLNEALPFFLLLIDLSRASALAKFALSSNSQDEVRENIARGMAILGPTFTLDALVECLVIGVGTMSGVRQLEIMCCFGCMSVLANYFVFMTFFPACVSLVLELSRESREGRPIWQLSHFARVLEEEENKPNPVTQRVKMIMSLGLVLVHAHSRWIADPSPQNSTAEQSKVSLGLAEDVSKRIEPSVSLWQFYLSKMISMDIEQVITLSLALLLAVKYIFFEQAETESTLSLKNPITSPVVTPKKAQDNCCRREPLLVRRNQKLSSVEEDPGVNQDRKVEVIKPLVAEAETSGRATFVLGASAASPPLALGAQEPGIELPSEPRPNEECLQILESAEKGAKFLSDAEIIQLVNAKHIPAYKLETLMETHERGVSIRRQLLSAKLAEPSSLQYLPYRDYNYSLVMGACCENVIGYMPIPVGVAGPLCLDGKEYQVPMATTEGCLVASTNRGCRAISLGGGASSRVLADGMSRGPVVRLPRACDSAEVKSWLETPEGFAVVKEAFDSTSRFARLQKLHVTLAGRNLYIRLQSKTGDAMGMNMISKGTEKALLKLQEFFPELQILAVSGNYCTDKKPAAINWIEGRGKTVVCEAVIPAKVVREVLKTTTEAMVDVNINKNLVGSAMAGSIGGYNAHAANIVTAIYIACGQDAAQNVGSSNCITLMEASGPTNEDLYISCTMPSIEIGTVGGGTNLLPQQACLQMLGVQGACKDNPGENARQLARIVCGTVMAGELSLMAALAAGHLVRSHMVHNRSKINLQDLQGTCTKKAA
Protocol: Test A. In Vitro Microsomal Assay of HMG-CoA Reductase Inhibition:
200 μl. aliquots (1.08-1.50 mg./ml.) of rat liver microsomal suspensions, freshly prepared from male Sprague-Dawley rats (150-225 g. body weight), in Buffer A with 10 mmol. dithiothreitol are incubated with 10 μl. of a solution of the test substance in dimethylacetamide and assayed for HMG-CoA reduotase activity as described in Ackerman et al., J. Lipid Res. 18, 408-413 (1977). In the assay the microsomes are the source of the HMG-CoA reductase enzyme which catalyzes the reduction of HMG-CoA to mevalonate. The assay employs a chloroform extraction to separate the product, [^14 C]mevalonolactone, formed by the HMG-CoA reductase reaction from the substrate, [^14 C]HMG-CoA. [^3 H]mevalonolactoneis added as an internal reference. Inhibition of HMG-CoA reductase is calculated from the decrease in specific activity ([^14 C/^3 H]mevalonate) of test groups compared to controls.
IC50 is the concentration of the test substance in
the assay system calculated to produce a 50%
inhibition of HMG-CoA reductase activity.

cholesterol biosynthesis = assay: Test C: In Vivo Cholesterol Biosynthesis Inhibition Test; design: species or system rat; settings: for change in sterol synthesis (nCi of sterols formed) from test groups compared to controls: at 0.5 mg./kg.; for ED50: Rattus norvegicus, ip, read-out: ED50 (inhibition of sterol synthesis)
Source text: Test C: In Vivo Cholesterol Biosynthesis Inhibition Test: In vivo studies utilize male Wistar Royal Hart rats weighing 150±20 g. which have been kept for 7-10 days on an altered light cycle (6:30 A.M.-6:30 P.M. dark) housed two per cage and fed powdered Purina Rat Chow and water ad libitum. […] Controls receive vehicle alone. […] Two hours after mid-dark, blood samples are obtained under sodium hexobarbitol anesthesia and the serum is separated by centrifugation. […] The [^14 C]digitonides are then counted by liquid scintillation spectrometry. […] Inhibition of sterol synthesis is calculated from the reduction in the nCi of sterols formed from test groups compared to controls.

[1] = male Wistar Royal Hart rats, [1-14C]acetate i.p.

SMILES	IC50 (HMG-CoA reductase)	change in sterol synthesis (nCi of sterols formed) from test groups compared to controls (cholesterol biosynthesis; [1])	ED50 (cholesterol biosynthesis; [1])	ED50 (cholesterol biosynthesis)
Cc1cc(C)cc(-c2c(/C=C/[C@@H]3C[C@@H](O)CC(=O)O3)c(C)cc3ccccc23)c1 (relative stereo) [Example 4, (E)-Trans-6-(2'-[1"-(3"',5"'-dimethylphenyl)-3"-methylnaphth-2"-yl]ethenyl)-4-hydroxy-3,4,5,6-tetrahydro-2H-pyran-2-one]	0.33 µM	-20%		
CCOC(=O)C[C@H](O)C[C@H](O)/C=C/c1c(C)cc2ccccc2c1-c1cc(C)cc(C)c1 (relative stereo) [Example 1, Ethyl erythro-(E)-3,5-dihydroxy-7-[1'-(3",5"-dimethylphenyl)-3-methylnaphth-2'-yl]hept-6-enoate]	0.08 µM	-35%		
Cc1cc(C)cc(-c2c(/C=C/[C@@H](O)C[C@@H](O)CC(=O)O)c(C)cc3ccccc23)c1 (relative stereo) [Example 2, Sodium erythro-(E)-3,5-dihydroxy-7-[1'-(3",5"-dimethylphenyl)-3'-methylnaphth-2'-yl]hept-6-enoate]	0.01 µM		0.3 mg/kg	
CC[C@H](C)C(=O)O[C@H]1C[C@@H](C)C=C2C=C[C@H](C)[C@H](CC[C@@H]3C[C@@H](O)CC(=O)O3)[C@H]21 [Mevinolin, reference compound]				0.41 mg/kg
CC[C@H](C)C(=O)O[C@H]1CCC=C2C=C[C@H](C)[C@H](CC[C@@H]3C[C@@H](O)CC(=O)O3)[C@H]21 [Compactin, reference compound]	0.77 µM		3.5 mg/kg	
